# From patent publication US7223777B2, “Compounds for the management of aging-related and diabetic vascular complications, process for their preparation, therapeutic and cosmetic uses thereof” (Torrent Pharmaceuticals Ltd., priority 2001, dated 2007)
# Tests used:
# [1] = diabetes induced (Wolffenbuttel 1998); cited from earlier work
# AGE-BSA = molecular target: T1, AGE-BSA (Bos taurus, UniProt P02769); assay: In-vitro screening for AGE-breaking activity (AGE-BSA incubated with compound; ELISA / gel permeation chromatography); format: biochemical, bovine; settings: 10 mM compound, 37° C., 24 hours
# T1 construct: Bovine serum albumin (fraction V) (BSA); from tissue; host or cells: bovine serum (fraction V); own knowledge: fraction V is the albumin fraction of plasma/serum
# Description: Fluorescence was used as the criteria to monitor the increased AGE formation.
# 160 mg/ml of protein, bovine serum albumin, BSA and 1.6M glucose sugar were dissolved in phosphate buffered saline, PBS. Sodium azide was added at 0.02% concentration as a preservative. The solution was filtered asceptically through a […] filter and kept for aging at 37° C. for 16 weeks. After 16 weeks the solution was dialyzed against PBS, aliquoted and stored at −20° C.
# To determine the AGE breaking activity, 10 μg/ml of the 16 weeks AGE-BSA was incubated with different concentrations of the test compounds at 37° C. for 24 hours and AGE breaking activity of the test compounds by ELISA was determined.
# • 1. Different concentrations of 16 weeks AGE-BSA were coated on a microtiter plate as standard. Each concentration is coated in triplicates. • 2. The test samples were coated on microtiter plate at a concentration of 5 ng. to 20 ng per well in triplicates. • 3. The plate was incubated at 37° C. for one hour. • 4. After incubation the plate was washed with PBST (PBS with 0.05% Tween 20). • 5. Blocking with 5% skimmed milk in PBS at 37° C. for one hour was done. • 6. The plate was washed with PBST. • 7. Primary antibody against AGE-BSA was added and the plate is incubated at 37° C. for one hour. • 8. The plate was washed with PBST. • 9. Secondary antibody anti rabbit HRPO (Horse-Radish Per Oxidase) conjugate was added and the plate is incubated at 37° C. for one hour. • 10. The plate was washed with PBST. • 11. Colour development with OPD (orthophenylenediamine dihydrochloride) and hydrogen peroxide was done. • 12. OD (optical density) at (450 nm reading –620 nm reading) was measured after incubation at 37° C. for 15 minutes with Microplate ELISA Reader.
# The breaker activity of the compounds were determined by the following formula:
# [formula] OD450-620Control=Absorbance of 20 ng AGE-BSA after incubation at 37° C. for 24 hours without test compound. OD450-620Test=Absorbance of 20 ng AGE-BSA after incubation at 37° C. for 24 hours with required concentration of test compound.
# Gel Permeation Chromatography based method was used to determine AGE breaking activities of the compounds.
# Separation by Gel Permeation Chromatography (GPC) depends on differences in the size, more precisely the hydrodynamic volume, of the proteins in a sample. […] The pores of a column particle are differentially accessible to smaller particles, depending on their size. This volume of the column is called (V1). The total accessible volume (Vt) is the sum of the volume outside the particles (V0) and the volume accessible inside the particles (V1): Vt=V0+Vi Therefore, in a typical Gel Permeation Chromatography (GPC) run, high molecular weight molecules elute at a lower retention time whereas lower molecular weight molecules are retained for longer time. For the purpose of quantification, the area under the curve for the respective molecule is recorded. The same principle has been applied in the in vitro screening of the molecules of instant invention. Highly cross-linked Advanced Glycosylated Endproducts (AGE) were prepared in vitro by incubating Bovine Serum Albumin (BSA) with glucose for a period of 16 weeks. […] The reduction in the area of AGE-BSA incubated in the presence of AGE breaker as compared to that of control AGE BSA (incubated in absence of AGE breaker) gives an estimate of the AGE breaker activity of the drug. In order to check the non-specific activity of the molecule, a similar experiment was repeated with BSA as well. Methodology:
# A known concentration of 16-week AGE-BSA was incubated with and without a predetermined concentration of the drug at 37° C. for 24 hours in clean transparent glass test tubes. The solution without drug served as the control and the solution containing the drug was treated as the test sample.
# Gel permeation chromatography was performed on equal volumes of control AGE-BSA preparation and solution of AGE-BSA treated with drug. […]
# [2] = tested on: Maillard reaction in-vitro (BSA, ribose); assay: Test for AGE inhibiting activity (Maillard reaction in-vitro, BSA + ribose, fluorescence); format: biochemical, bovine; settings: 37° C., 7 days
# Description: The following method was used to determine the inhibitory effect of the test compounds on Maillard reaction in-vitro. This method is adopted from U.S. Pat. No. 5,514,676 and European Patent No. 0 339 496 A2.
# A solution of Bovine Serum Albumin (BSA), ribose and test compound was prepared in Phosphate Buffer Saline (PBS, pH 7.4) so as to have final concentration of BSA and ribose at 10 mg/ml and 500 mM respectively. Addition of compound was done in aseptic conditions. Sodium azide (0.02%) was also added in this solution in order to prevent microbial growth. A separate tube containing BSA, ribose and sodium azide in the same concentration and buffer as above, but without any test compound, was also incubated as positive control. After incubation at 37° C. for 7 days, 40 micro liter sample from each tube was removed and diluted with PBS to have final concentration of BSA at 1 mg/ml. The fluorescence of all the samples was measured at Excitation Maximum of […] and the Emission Maximum of […] using f-MAX Fluorimeter (Molecular Device, USA). In order to study the effect of test compound on fluorescence, freshly prepared compound solution was mixed with previously incubated positive control (i.e. BSA+ribose), so as to achieve same concentration of all the components as that of test samples.
# The percent inhibition of test compound was measured as follows:
# [formula] Where F3=Fluorescence of BSA+ribose+compound, F4 is fluorescence of incubated (BSA+ribose)+freshly added test compound.
# [3] = Free radical scavenging activity on ABTS radical cation; format: biochemical
# Description: This method measures the relative ability of free radical scavenging substances to scavenge the ABTS.^+ i.e. 2,2-Azino-bis-(3-ethyl benzo thiazoline-6-sulfonate) radical cation as compared to a standard amount of standard or free radical scavengers antioxidants. Incubation of ABTS with Peroxidase (metmyoglobin) and hydrogen peroxide results in the production of radical cation ABTS.^+. This species is blue-green in colour and can be detected at 730 nm. Antioxidants or free radical scavengers in the added sample that causes suppression of the color to a degree that is proportional to their concentration.
# Preparation of Buffer Solutions: • a. Phosphate Citrate Buffer (pH 5.0): 48.5 ml of 0.1M citric acid with sufficient 0.2M disodium hydrogen phosphate to produce 100 ml. • b. Phosphate Buffer Saline (PBS): Dissolve 40.0 g of NaCl, 1.0 g of KCl, 1.0 g of KH2PO4 and 3.05 g of Na2HPO4 in 1 liter milli-Q water. Dilute 200 ml of above solution to 1 liter with milli-Q water (pH 7.4–7.6).
# Preparation of ABTS Stock Solution (2 mM): • 1 tablet (10 mg) was dissolved in phosphate citrate buffer (pH 5.0) to give a 2 mM solution.
# Preparation of Horse Radish Peroxidase Working Solution: • 0.1 mg was dissolved in 10 ml of phosphate buffer saline, 1 ml of this solution was diluted to 100 ml with PBS.
# Preparation of Hydrogen Peroxide (1.08 mM) Solution: • 12 μl of Hydrogen Peroxide (30% w/v) was diluted to 100 ml with PBS.
# Preparation of Drug Solutions: • 0.1 mM of stock solution of the drug was prepared which was serially diluted in PBS to get 0.05 mM, 0.025 mM and 0.0125 mM solutions.
# Preparation of ABTS Radical Stock Solution: • To 2 ml of ABTS stock solution, 1 ml of horseradish Peroxidase working solution was added. • As soon as 2 ml of Hydrogen peroxide solution was added to the above solution, blue-green colour of the ABTS radicals appeared. This solution was incubated at 30° C. for 30 min in order to ensure the completion reaction. Make up the volume to 10 ml with PBS.
# Preparation of Control Solution: • 900 μl of ABTS radical stock solution were added to an eppendorf tube. To it were added 100 μl of PBS solution.
# Preparation of Test Solution: • 900 μl of ABTS radical stock solutions were added to different eppendorf tubes. To it were added 100 μl of various concentrations of drug solution.
# Measurement of Absorbance (O.D): • The absorbance of control and test samples was recorded immediately at 730 nm taking PBS as blank.
# Calculation: • The percent antioxidant activity was calculated according to the formula: % Antioxidant activity=100−[O.D of test sample/O.D of control×100]
# [4] = tested on: AGE derived protein cross links; settings: Vasan et al. Nature 1996; U.S. Pat. No. 5,853,703; cited from earlier work
# [5] = tested on: diabetic retinopathy in rat model; settings: rat model (Hammes 1991, 1994; Roufail 1998); cited from earlier work
# diabetic rats [6] = settings: diabetic rats (Kihara 1991, Miyauchi 1996, Yagihashi 1992); cited from earlier work
# diabetic rats [7] = settings: cited from earlier work
# old rats = settings: aging rats (Li et al 1996); cited from earlier work
# T1 sequence (P02769 25-607): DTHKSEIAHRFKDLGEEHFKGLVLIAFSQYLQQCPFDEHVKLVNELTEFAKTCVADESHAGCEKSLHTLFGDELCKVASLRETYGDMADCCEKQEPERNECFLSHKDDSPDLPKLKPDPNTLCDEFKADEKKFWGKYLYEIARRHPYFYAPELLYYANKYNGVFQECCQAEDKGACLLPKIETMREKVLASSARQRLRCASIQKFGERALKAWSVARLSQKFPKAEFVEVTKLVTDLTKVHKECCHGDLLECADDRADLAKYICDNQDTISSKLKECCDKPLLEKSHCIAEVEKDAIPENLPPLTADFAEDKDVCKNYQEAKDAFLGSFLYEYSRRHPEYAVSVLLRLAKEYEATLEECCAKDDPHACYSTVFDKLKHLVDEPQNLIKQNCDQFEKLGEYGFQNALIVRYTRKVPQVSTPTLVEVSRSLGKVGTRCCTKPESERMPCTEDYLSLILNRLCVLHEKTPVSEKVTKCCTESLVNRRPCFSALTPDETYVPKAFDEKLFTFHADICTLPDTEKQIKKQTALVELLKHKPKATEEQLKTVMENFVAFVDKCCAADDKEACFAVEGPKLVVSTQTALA
SMILES,% Breakage (AGE-BSA) [%],% Inhibition (Day 7) ([2]; 5 mM compound) [%],Relative Free Radical Scavenging Activity (%) on ABTS ([3]; 12.5 μM) [%],Relative Free Radical Scavenging Activity (%) on ABTS ([3]; 25.0 μM) [%],Relative Free Radical Scavenging Activity (%) on ABTS ([3]; 50.0 μM) [%],Relative Free Radical Scavenging Activity (%) on ABTS ([3]; 100.0 μM) [%],also measured
Cc1sc[n+](CC(=O)c2ccccc2)c1C.[Cl-] [ALT-711],,,,,,,arterial stiffness and arterial compliance [1]: reverse diabetes induced increase of arterial stiffness and improve arterial compliance
"O=C(C[n+]1cccc(-c2cc(Cc3ccccc3)nn2-c2ccccc2)c1)c1ccccc1.[Cl-] [Compound 19, 1-(2-Phenyl-2-oxoethyl)-3-[(1-phenyl-3-phenylmethyl)pyrazol-5-yl]pyridinium chloride]",91.22,64.23,8.37,19.42,37.62,55.18,
O=C(C[n+]1cccc(-c2cc(CCC3CCCCC3)n[nH]2)c1)c1ccccc1.[Cl-] [Compound 22],100.00,,22.52,29.52,30.31,31.40,% Inhibition (Day 7) ([2]; 2.5 mM compound): 51%
"O=C(C[n+]1cccc(-c2cc(COc3ccccc3)n[nH]2)c1)c1cccs1.[Cl-] [Compound 24, 1-(2-Thien-2′-yl-2-oxoethyl)-3-[(3-phenoxymethyl)pyrazol-5-yl]pyridinium chloride]",97.72,82.5,43.66,74.64,83.24,90.12,
Cc1cc(C)n(Cc2cc(-c3ccc[n+](CC(=O)c4ccccc4)c3)n(-c3ccccc3)n2)n1.[Br-] [Compound 26],42.37,61.45,21.18,34.22,41.66,75.27,
"O=C(C[n+]1cccc(-c2cc(COc3ccccc3)nn2-c2ccccc2)c1)c1ccccc1.[Cl-] [Compound 34, 1-(2-Phenyl-2-oxoethyl)-3-[(1-phenyl-3-phenoxymethyl)pyrazol-5-yl]pyridinium chloride]",100.0,60,13.2,19.08,26.39,29.40,
O=C(C[n+]1ccsc1)c1ccccc1.[Br-] [N-phenacyl thiazolium bromide],,,,,,,"cleavage of AGE derived protein cross links [4]: cleaves covalent, AGE derived protein cross links"
N=C(N)NN [aminoguanidine],,,,,,,"progression of diabetic retinopathy [5]: retard progression of diabetic retinopathy; nerve conduction velocity (diabetic rats [6]): improve nerve conduction velocity; development of diabetic nephropathy (diabetic rats [7]; Yamauchi (1997)): inhibits development of diabetic nephropathy; thickening of glomerular basement membrane (diabetic rats [7]; diabetic rats (Ellis 1991)): ameliorate thickening of glomerular basement membrane; rise in albuminuria (diabetic rats [7]; experimental diabetic rats (Soulis-Liparota, 1991)): attenuate the rise in albuminuria; tissue damage (old rats): significantly prevent tissue damage"
